Assay results from patent publication US20230270816A1, “COMBINATION OF ANTINEOPLASTIC ANTIBIOTICS AND BCL-2 INHIBITORS FOR THE TREATMENT OF NPM-1-DRIVEN ACUTE MYELOID LEUKEMIA (AML)” (INSERM (INSTITUTE NATIONAL DE LA SANTÉ ET DE LA RECHERCHE …, priority 2020, published 2023).
Like-named read-outs stand apart in the source and are kept apart here. Starred links: 1 amine or outer side, 2 acyl side, 3 side chain; linkers in the order of their positions; H or OH if unused. Positions of bridges follow the written chain, without caps; N, C: chain ends. Non-standard residues stand in square brackets, D forms with d. Residues, ends and D or L forms follow the SMILES beside them. Chains are numbered I, II in the order given. Actinocin(9to1) = Cc1c2oc3c(C)ccc(C(=O)[*:1])c3nc-2c(C(=O)[*:2])c(N)c1=O; NMeV = CN[C@H](C(=O)O)C(C)C; Sar = CNCC(=O)O

Key:
TP53 [1] = test: Doxorubicin mitochondrial rounding and TP53 activation; assay type: cell-based
Source text: Targeting mitochondrial function by antibiotics was proposed as a therapeutic option for cancer^35,36 and mitochondrial status modulates chemotherapy response^37,38. Actinomycin D drives mitochondrial alterations prior to detectable activation of the ribosomal or DNA damage checkpoints. Actinomycin D inhibits complex II activity, which may reflect its structural similarity with FAD, one of its electron transporters. This may explain how ActD induces ROS, immediate early response genes, sensitizes cells to apoptosis or initiates immunogenic cell death^39. Complex II is important in hematopoietic progenitors^40, and regulated by PML^41, contributing to ActD therapeutic index in AML blasts. In vivo, ActD triggered features of mitochondria-induced senescence^26. Downstream of acute mitochondrial stress, our experiments reveal a key role of ROS signalling and PML/TP53 senescence (data not shown), drawing an unexpected similarity with acute promyelocytic leukemia, where NBs reformation drive response to arsenic therapy^12,42. In that respect, complex II poisoning has activity in APL models^43. […] Clinically, as both antineoplastic antibiotics (e.g. ActD) and BCL-2 inhibitors (e.g. Venetoclax) have remarkable clinical activity in NPM1c-AMLs, the dramatic synergy outlined here should rapidly be evaluated in patients.

AML2-NPM1c cells = test: Growth of isogenic AML2-NPM1c / AML2-NPM1 cells; assay type: cell-based; settings: AML2-NPM1c vs AML2-NPM1 cells; inhibition of JAK1/2 signalling
Source text: TFAM reduction may reflect transcriptional down-regulation of PGC1A by IFN signalling^16. Importantly, stable NPM1c expression drove PGC1α hyperacetylation resulting in its functional inactivation, possibly through PML NB downregulation (data not shown)^10. These altered mitochondria and release of mtDNA into the cytoplasm activate multiple downstream intracellular stress pathway, particularly IFN and NFKB targets (data not shown), at least in part through cGAS (cyclic GMP-AMP synthase) activation and cGAMP production (data not shown). Other stress pathways, such as oxidative stress or unfolded protein response were also activated (data not shown), resulting in decreased protein synthesis (data not shown). Western blot analyses comparing AML2-NPM1c to AML2-NPM1 cells validated activation of multiple stress pathways by the NPM1c oncogene, including the up-regulation of key TP53-repressed metabolic enzymes (data not shown). As expected, these mitochondrial alterations yielded decreased ATP/ADP+AMP or GTP/GDP+GMP ratios, reflecting metabolic stress (data not shown). Stress responses could directly or indirectly favour leukaemogenesis^20-22. […] These mitochondrial defects may constitute targetable intrinsic weaknesses and, for example, account for the exquisite clinical sensitivity of NPM1c-AMLs to Bcl2 antagonists^23.

PML NBs = test: PML nuclear body (NB) reformation ex vivo; assay type: cell-based; settings: for effect of ROS scavenger on ActD NB-restoration: AML2-NPM1c cells
Source text: (§1) Conversely, we used Thenoyl-trifluoroacetone (TTFA) a well-characterized inhibitor of mitochondrial complex II and major inducer of ROS.

AML3 cells [2] = test: Mitochondrial network and function in AML3 cells; assay type: cell-based
Source text: as §1

AML3 cells [3] = test: Senescence markers and clonogenic activity in AML3 cells; assay type: cell-based; settings: for clonogenic activity: AML3 cells
Source text: as §1

leukemic blasts = test: AML patient treated with a single ActD course; assay type: in vivo
TP53 [4] = tested on: TP53
NPM1c-AML = settings: Half of NPM1c-AML patients; single agent; cited from earlier work
murine NPM1c-driven AML = test: Murine NPM1c-driven AML model; settings: mouse, in vivo
Source text: (§2) We first assessed ActD response in primary cells.
(§3) We therefore explored the ActD/Venetoclax interaction in different NPM1c-driven AML models in vivo. […] Thus, ActD and Venetoclax dramatically synergized to clear AMLs in vivo.

[5] = tested on: primary human NPM1c-AML blasts; test: Immune-deficient mice xenografted with primary human NPM1c-AML blasts; assay type: in vivo
Source text: FIG. 2: ActD enhances Venetoclax anti-leukaemic effects. Response to ActD and/or Venetoclax in a transplantable AML model initiated by NPM1c+IDH1^R132H mutation. A, GFP abundance in bone marrow samples collected at treatment interruption and B, survival curve, n=2. C, abundance of human AML cells in xenografted mice treated for two weeks. Combined therapy induces AML regression.
as §2, §3

complex II = biological target: T1, complex II (Homo sapiens, UniProt P31040); test: Electron transport chain complex activity; assay type: biochemical; settings: but not complex I or IV; primarily in NPM1c-expressing cells
T1 construct: endogenous in cells; host or cells: NPM1c-expressing cells (not further specified; the same paragraph mentions AML3, AML2-NPM1c and NPM1c-ES cells)

[6] = leukemic blasts from peripheral blood

T1 sequence (P31040 43-664): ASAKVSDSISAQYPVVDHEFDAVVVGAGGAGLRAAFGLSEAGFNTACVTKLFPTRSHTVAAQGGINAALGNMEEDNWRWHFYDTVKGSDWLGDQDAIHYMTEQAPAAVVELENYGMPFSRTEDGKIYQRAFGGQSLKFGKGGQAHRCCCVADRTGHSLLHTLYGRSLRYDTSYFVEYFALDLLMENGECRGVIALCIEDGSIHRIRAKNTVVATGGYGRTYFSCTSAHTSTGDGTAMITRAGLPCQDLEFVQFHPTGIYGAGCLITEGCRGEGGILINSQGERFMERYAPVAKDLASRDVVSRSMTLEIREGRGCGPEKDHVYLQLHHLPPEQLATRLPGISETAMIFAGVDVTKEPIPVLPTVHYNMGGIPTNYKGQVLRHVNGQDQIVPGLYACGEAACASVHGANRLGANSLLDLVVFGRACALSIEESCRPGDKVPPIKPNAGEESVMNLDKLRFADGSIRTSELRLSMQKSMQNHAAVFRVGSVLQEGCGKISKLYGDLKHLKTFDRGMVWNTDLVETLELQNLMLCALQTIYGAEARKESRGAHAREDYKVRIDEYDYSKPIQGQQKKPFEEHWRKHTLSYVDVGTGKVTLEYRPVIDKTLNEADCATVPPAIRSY
T1 sequence (P21912 29-280 partner): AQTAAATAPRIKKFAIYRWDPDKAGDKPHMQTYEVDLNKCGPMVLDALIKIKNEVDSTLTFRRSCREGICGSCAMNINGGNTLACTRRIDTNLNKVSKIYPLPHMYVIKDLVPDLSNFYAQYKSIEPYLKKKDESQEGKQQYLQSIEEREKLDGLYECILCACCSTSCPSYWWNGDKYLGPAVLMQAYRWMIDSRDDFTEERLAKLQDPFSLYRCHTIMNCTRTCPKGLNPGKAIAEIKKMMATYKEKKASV
T1 sequence (Q99643 30-169 partner): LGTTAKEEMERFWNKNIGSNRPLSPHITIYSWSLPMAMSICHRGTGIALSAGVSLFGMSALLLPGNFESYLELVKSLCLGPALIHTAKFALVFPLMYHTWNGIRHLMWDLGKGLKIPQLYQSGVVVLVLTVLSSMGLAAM
T1 sequence (O14521 57-159 partner): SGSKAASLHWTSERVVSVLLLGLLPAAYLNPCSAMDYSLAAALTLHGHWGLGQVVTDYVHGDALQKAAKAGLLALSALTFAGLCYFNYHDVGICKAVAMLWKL

COc1cccc2c1C(=O)c1c(O)c3c(c(O)c1C2=O)C[C@@](O)(C(=O)CO)C[C@@H]3O[C@H]1C[C@H](N)[C@H](O)[C@H](C)O1 [Doxorubicin]
TP53 activation (TP53 [1]): PML-dependent, NPM1c-enhanced and NAC-reversible TP53 activation | mitochondrial morphology (TP53 [1]): triggered immediate mitochondrial rounding

N#CCNC(=O)c1ccc(-c2ccnc(Nc3ccc(N4CCOCC4)cc3)n2)cc1 [CYT387]
growth (AML2-NPM1c cells): inhibited growth, more potently in AML2-NPM1c than in AML2-NPM1 cells

CC(=O)N[C@@H](CS)C(=O)O [N-acetyl cysteine]
effect of ROS scavenger on ActD NB-restoration (PML NBs): completely blocked

O=C(CC(=O)C(F)(F)F)c1cccs1 [TTFA, Thenoyl-trifluoroacetone]
mitochondrial superoxide (AML3 cells [2]; AML3 cells): massively induced mitochondrial superoxide | NB formation (PML NBs; NPM1c-transfected stable GFP-PML-III MEFs): restored NB formation | clonogenic activity (AML3 cells [3]): decreased clonogenic activity

Cc1c2oc3c(C)ccc(C(=O)N[C@@H]4C(=O)N[C@H](C(C)C)C(=O)N5CCC[C@H]5C(=O)N(C)CC(=O)N(C)[C@@H](C(C)C)C(=O)O[C@@H]4C)c3nc-2c(C(=O)N[C@@H]2C(=O)N[C@H](C(C)C)C(=O)N3CCC[C@H]3C(=O)N(C)CC(=O)N(C)[C@@H](C(C)C)C(=O)O[C@@H]2C)c(N)c1=O [ActD, actinomycin D] (I: T[dV]P[Sar][NMeV] / II: T[dV]P[Sar][NMeV]; ester I:1-I:C, II:1-II:C; linker I:N-II:N via Actinocin(9to1))
mitochondrial network (AML3 cells [2]; AML3 and NPM1c-ES cells, as early as 1h): fragmented the mitochondrial network | blast decrease (leukemic blasts; after a single course of daily ActD injections for 5 days): 10^4 fold | completion of in vivo reformation of PML NBs (leukemic blasts; [6]): ≤ 12 h | start of in vivo reformation of PML NBs (leukemic blasts; [6]): 6 h | TP53 activation (TP53 [4]; AML3 cells, ex vivo, 5 nM): triggered rapid TP53 activation | TP53 stabilization (TP53 [4]; normal bone marrow progenitors in vivo or ex vivo, human or mouse primary fibroblasts (WI-38, MEFs) ex vivo, low doses): no significant TP53 stabilization | PML NB reformation (PML NBs; AML2-NPM1c, AML3 cells or NPM1c-transfected MEFs): very rapid NB reformation | PML NB restoration (PML NBs; primary NPM1c-AML blasts treated ex vivo): PML NB restoration was also observed | clinical response (NPM1c-AML): dramatic responses | AML response with leukaemia-selective TP53 activation (murine NPM1c-driven AML): AML regression and blast differentiation | leukemic burden ([5]; after 5 days of ActD therapy): dramatically reduced the leukemic burden | stabilization of human TP53 vs mouse Trp53 ([5]; two xenografted mice): rapidly triggered selective stabilization of human TP53 | clonogenic activity (AML3 cells [3]): loss of clonogenic activity | senescence signs (TP53 activation, p21, Serpine-1, cGAMP, SA-β-Gal) (AML3 cells [3]; NPM1c-positive AML3 cells): multiple signs of senescence | complex II activity (complex II): further inhibited the basal low level of complex II

N[C@@H](CCC(=O)N[C@@H](CS)C(=O)NCC(=O)O)C(=O)O [glutathione]
effect of ROS scavenger on ActD NB-restoration (PML NBs): completely blocked

venetoclax
mitochondrial effects (AML3 cells [2]; AML3 cells, Venetoclax alone): induced mitochondrial fragmentation, reduction of mitochondrial membrane potential, production of ROS and leakage of mtDNA to the cytoplasm
